Measured values: patent US20240391882A1 (Mirati Therapeutics, Inc., priority 2023, published 2024)

Tests used:
[1] = tested on: SKBR3 (PI3Kα wild type) cells; assay: Cell viability (CellTiter-Glo 2.0) in SKBR3 cells; type: cell-based; details: Homo sapiens, SK-BR-3; SKBR3 (PI3Kα wild type) cells, approximately 72 hours, CellTiter-Glo 2.0; read-out: SKBR3 (WT) Viability IC50
Description: This Example illustrates that representative compounds of the invention decrease the viability of cells.
The ability of a compound of Formula (I) to decrease the viability of cells was measured using CellTiter-Glo 2.0 (CTG) Luminescent Cell Viability Assay (#G9241) obtained from Promega (Madison, WI).
To prepare assay plates for viability assays, cells were trypsinized, resuspended in fresh media, and viable cells were counted utilizing trypan blue exclusion. T47D, SKBR3, or MKN1 cells were seeded at 1000 cells in 30 μl per well in a solid white flat bottom 384 cell culture plate (Perkin Elmer #6007680) and incubated at 37° C. overnight.
Assay day 1, cells were dosed using an Echo Liquid Handler (Beckman Coulter) with compounds at a 10 μm starting concentration and serially diluted (1:4) for a total of 10 concentrations. Cells were incubated for approximately 72 hours with the compounds (solubilized in DMSO) at 37° C. After 72 hours of treatment, cell plates were equilibrated to room temperature before adding 15 μl of CTG to each well, plates were then covered in aluminum foil to protect from light, incubated at room temperature for 30 minutes on a microtiter plate shaker, and luminescence readings were collected using a CLARIOstar microplate reader (BMG Labtech, Germany). Percent of vehicle control values were plotted as log(inhibitor) vs. response—Variable slope (four parameters) for curve fitting and IC50 values were determined using XLfit.

[2] = tested on: T47D (PI3Kα H1047R mutant) cells; assay: Cell viability (CellTiter-Glo 2.0) in T47D cells; type: cell-based; details: Homo sapiens, T47D, 72 h, approximately 72 hours
Procedure, shortened: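 IC50 values derive from four-parameter fits of CellTiter-Glo luminescence expressed as percent of vehicle control. Cells (T47D or SKBR3) were plated at 1000/well the day before dosing and incubated about 72 h at 37° C with a 10-point, 1:4 series starting at 10 μm.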

IC50 [1] | IC50 [2] | SMILES
> 10000 nM | 365 nM | Cc1cc([C@@H](C)Nc2ccccc2C(=O)O)c2nc(N3CCc4cc(F)ccc4C3)c(C#N)nc2c1 [Example 88, (R)-2-((1-(2-cyano-3-(6-fluoro-3,4-dihydroisoquinolin-2(1H)-yl)-7-methylquinoxalin-5-yl)ethyl)amino)benzoic acid]
> 10000 nM | 270 nM | Cc1cc([C@@H](C)Nc2ccccc2C(=O)O)c2nc(N3CCc4cc(C#N)ccc4C3)c(C#N)nc2c1 [Example 86, (R)-2-((1-(2-cyano-3-(6-cyano-3,4-dihydroisoquinolin-2(1H)-yl)-7-methylquinoxalin-5-yl)ethyl)amino)benzoic acid]
3560 nM | 3440 nM | CNC(=O)c1ccccc1N[C@H](C)c1cc(C)cc2nc(C#N)c(N3CCOCC3)nc12 [Example 856, (R)-2-((1-(2-cyano-7-methyl-3-morpholinoquinoxalin-5-yl)ethyl)amino)-N-methylbenzamide]
> 10000 nM | 140 nM | Cc1cc([C@@H](C)Nc2ccccc2C(=O)O)c2nc(N3CC4(COC4)C3)c(C#N)nc2c1 [Example 59, (R)-2-((1-(2-cyano-7-methyl-3-(2-oxa-6-azaspiro[3.3]heptan-6-yl)quinoxalin-5-yl)ethyl)amino)benzoic acid]
> 10000 nM | 324 nM | Cc1cc([C@@H](C)Nc2ccccc2C(=O)O)c2nc(NC3CC(F)(F)C3)c(C#N)nc2c1 [Example 76, (R)-2-((1-(2-cyano-3-((3,3-difluorocyclobutyl)amino)-7-methylquinoxalin-5-yl)ethyl)amino)benzoic acid]
> 10000 nM | 456 nM | Cc1cc([C@@H](C)Nc2ccccc2C(=O)O)c2nc(N3CCC(C)(C(F)(F)F)CC3)c(C#N)nc2c1 [Example 65, (R)-2-((1-(2-cyano-7-methyl-3-(4-methyl-4-(trifluoromethyl)piperidin-1-yl)quinoxalin-5-yl)ethyl)amino)benzoic acid]
> 10000 nM | 176 nM | Cc1cc([C@@H](C)Nc2ccccc2C(=O)O)c2nc(N3CCC(F)(F)[C@H](C)C3)c(C#N)nc2c1 [Example 79B, 2-(((R)-1-(2-cyano-3-((R)-4,4-difluoro-3-methylpiperidin-1-yl)-7-methylquinoxalin-5-yl)ethyl)amino)benzoic acid]
> 10000 nM | 96.3 nM | CO[C@@H]1CCN(c2nc3c([C@@H](C)Nc4ccccc4C(=O)O)cc(C)cc3nc2C#N)C1 (single isomer, unassigned) [Example 72B]
> 10000 nM | 64 nM | Cc1cc([C@@H](C)Nc2ccc(Cl)nc2C(=O)O)c2nc(N3CC4CC3C(F)(F)C4)c(C#N)nc2c1 (single isomer, unassigned) [Example 11]
7680 nM | 78 nM | Cc1cc([C@@H](C)Nc2ccc(Cl)nc2C(=O)O)c2nc(N3CCC(C)(C(F)(F)F)CC3)c(C#N)nc2c1 [Example 66, (R)-6-chloro-3-((1-(2-cyano-7-methyl-3-(4-methyl-4-(trifluoromethyl)piperidin-1-yl)quinoxalin-5-yl)ethyl)amino)picolinic acid]
> 10000 nM | 120 nM | Cc1cc([C@@H](C)Nc2ccc(Cl)nc2C(=O)O)c2nc(NCC3(C(F)(F)F)CC3)c(C#N)nc2c1 [Example 15, (R)-6-chloro-3-((1-(2-cyano-7-methyl-3-(((1-(trifluoromethyl)cyclopropyl)methyl)amino)quinoxalin-5-yl)ethyl)amino)picolinic acid]
> 10000 nM | 98.1 nM | Cc1cc([C@@H](C)Nc2ccc(Cl)nc2C(=O)O)c2nc(N3CCC(S(C)(=O)=O)CC3)c(C#N)nc2c1 [Example 106, (R)-6-chloro-3-((1-(2-cyano-7-methyl-3-(4-(methylsulfonyl)piperidin-1-yl)quinoxalin-5-yl)ethyl)amino)picolinic acid]
